Data reported in PubChem BioAssay AID192 (DTP/NCI, 2004).
Values joined by “and” are separate entries in the source; they are usually repeats but may differ in a detail not shown here. Equal entries are not always repeated. Inconclusive results and toxic doses are left out.

Tested on: BDF1 mice, B16 melanoma ip, median survival T/C
Experiment: NCI In Vivo Anticancer Drug Screen. Data for tumor model B16 Melanoma (intraperitoneal) in B6D2F1 (BDF1) mice
Conditions: endpoint: median survival time, higher = longer survival
In short: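 Each result divides a survival or tumor-size measurement in the compound-treated group by the same measurement in the vehicle group.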

[1] = dose: 100.0 mg/kg/injection, schedule: Q01DX009 (ip), vehicle: Klucel (hydroxypropylcellulose) (HPC)
[2] = dose: 200.0 mg/kg/injection, schedule: Q01DX009 (ip), vehicle: Klucel (hydroxypropylcellulose) (HPC)
[3] = dose: 12.5 mg/kg/injection, schedule: Q01DX009 (ip), vehicle: water
[4] = dose: 25.0 mg/kg/injection, schedule: Q01DX009 (ip), vehicle: water
[5] = dose: 100.0 mg/kg/injection, schedule: Q01DX009 (ip), vehicle: saline with Tween-80
[6] = dose: 200.0 mg/kg/injection, schedule: Q01DX009 (ip), vehicle: saline with Tween-80
[7] = dose: 400.0 mg/kg/injection, schedule: Q01DX009 (ip), vehicle: saline with Tween-80
[8] = dose: 400.0 mg/kg/injection, schedule: Q01DX009 (ip), vehicle: Klucel (hydroxypropylcellulose) (HPC)
[9] = dose: 50.0 mg/kg/injection, schedule: Q01DX009 (ip), vehicle: saline with Tween-80
[10] = dose: 25.0 mg/kg/injection, schedule: Q04DX003 (ip), vehicle: Klucel (hydroxypropylcellulose) (HPC)
[11] = dose: 50.0 mg/kg/injection, schedule: Q04DX003 (ip), vehicle: Klucel (hydroxypropylcellulose) (HPC)
[12] = dose: 100.0 mg/kg/injection, schedule: Q04DX003 (ip), vehicle: Klucel (hydroxypropylcellulose) (HPC)
[13] = dose: 12.5 mg/kg/injection, schedule: Q01DX009 (ip), vehicle: saline with Tween-80
[14] = dose: 25.0 mg/kg/injection, schedule: Q01DX009 (ip), vehicle: saline with Tween-80
[15] = dose: 100.0 mg/kg/injection, schedule: Q01DX009 (ip), vehicle: saline
[16] = dose: 25.0 mg/kg/injection, schedule: Q01DX009 (ip), vehicle: saline
[17] = dose: 50.0 mg/kg/injection, schedule: Q01DX009 (ip), vehicle: saline

## COc1cc([C@@H]2c3cc4c(cc3C[C@H]3COC(=O)[C@@H]32)OCO4)cc(OC)c1OC
dose: 5.0 mg/kg/injection, schedule: Q01DX009 (ip), vehicle: saline
  T/C: 107 % of control
dose: 10.0 mg/kg/injection, schedule: Q01DX009 (ip), vehicle: saline
  T/C: 109 % of control

## COc1ccc2c(c1O)-c1cccc3c1[C@@H](C2)N(CCCl)CC3
dose: 4.0 mg/kg/injection, schedule: Q01DX009 (ip), vehicle: saline
  T/C: 91 % of control and 116 % of control
dose: 8.0 mg/kg/injection, schedule: Q01DX009 (ip), vehicle: saline
  T/C: 97 % of control and 120 % of control
dose: 16.0 mg/kg/injection, schedule: Q01DX009 (ip), vehicle: saline
  T/C: 97 % of control and 111 % of control

## O=C(Nc1ccc(F)cc1)NC1CCCCC1
[1]
  T/C: 87 % of control
[2]
  T/C: 100 % of control

## CC1(O)Nc2nc3c(ncn3C3OC(CO)C(O)C3O)c(=O)n2C1O (stereo not drawn)
[3]
  T/C: 96 % of control
[4]
  T/C: 103 % of control
dose: 50.0 mg/kg/injection, schedule: Q01DX009 (ip), vehicle: water
  T/C: 101 % of control
dose: 100.0 mg/kg/injection, schedule: Q01DX009 (ip), vehicle: water
  T/C: 100 % of control
dose: 200.0 mg/kg/injection, schedule: Q01DX009 (ip), vehicle: water
  T/C: 97 % of control
dose: 400.0 mg/kg/injection, schedule: Q01DX009 (ip), vehicle: water
  T/C: 95 % of control

## OC1CC2CCC(C1)N2CCCN1c2ccccc2Sc2ccc(Cl)cc21 (stereo not drawn)
dose: 25.0 mg/kg/injection, schedule: Q04DX003 (ip), vehicle: saline
  T/C: 97 % of control
dose: 50.0 mg/kg/injection, schedule: Q04DX003 (ip), vehicle: saline
  T/C: 90 % of control
dose: 100.0 mg/kg/injection, schedule: Q04DX003 (ip), vehicle: saline
  T/C: 93 % of control
dose: 200.0 mg/kg/injection, schedule: Q04DX003 (ip), vehicle: saline
  T/C: 88 % of control

## CCCCCCCCCCCC(=O)NC1CC(O[C@H]2C[C@](O)(C(=O)CO)Cc3c(O)c4c(c(O)c32)C(=O)c2c(OC)cccc2C4=O)OC(C)C1O (stereo partly drawn)
dose: 12.5 mg/kg/injection, schedule: Q01DX001 (ip), vehicle: distilled water + Tween-80
  T/C: 119 % of control
dose: 12.5 mg/kg/injection, schedule: Q01DX001 (ip), vehicle: water
  T/C: 195 % of control
dose: 25.0 mg/kg/injection, schedule: Q01DX001 (ip), vehicle: distilled water + Tween-80
  T/C: 189 % of control
dose: 25.0 mg/kg/injection, schedule: Q01DX001 (ip), vehicle: water
  T/C: 233 % of control
dose: 50.0 mg/kg/injection, schedule: Q01DX001 (ip), vehicle: distilled water + Tween-80
  T/C: 195 % of control
dose: 50.0 mg/kg/injection, schedule: Q01DX001 (ip), vehicle: water
  T/C: 257 % of control
dose: 100.0 mg/kg/injection, schedule: Q01DX001 (ip), vehicle: distilled water + Tween-80
  T/C: 258 % of control
dose: 100.0 mg/kg/injection, schedule: Q01DX001 (ip), vehicle: water
  T/C: 325 % of control
dose: 200.0 mg/kg/injection, schedule: Q01DX001 (ip), vehicle: distilled water + Tween-80
  T/C: 215 % of control
dose: 200.0 mg/kg/injection, schedule: Q01DX001 (ip), vehicle: water
  T/C: 104 % of control
dose: 400.0 mg/kg/injection, schedule: Q01DX001 (ip), vehicle: distilled water + Tween-80
  T/C: 231 % of control
dose: 400.0 mg/kg/injection, schedule: Q01DX001 (ip), vehicle: water
  T/C: 102 % of control

## CC(C)c1ccc(C(=O)CCCCl)cc1
[5]
  T/C: 93 % of control
[6]
  T/C: 86 % of control

## CC(=O)/C(C)=C\c1ccccc1
[5]
  T/C: 102 % of control
[6]
  T/C: 95 % of control
[7]
  T/C: 86 % of control

## O=[N+]([O-])c1ccc(OCc2ccc(S(=O)(=O)F)c(Cl)c2)c(Cl)c1
[1]
  T/C: 102 % of control
[2]
  T/C: 100 % of control
[8]
  T/C: 97 % of control

## O=C1NC(c2ccccc2)(c2ccccc2)C(=O)N1SC(Cl)(Cl)Cl
dose: 3.12 mg/kg/injection, schedule: Q01DX009 (ip), vehicle: Klucel (hydroxypropylcellulose) (HPC)
  T/C: 106 % of control
dose: 6.25 mg/kg/injection, schedule: Q01DX009 (ip), vehicle: Klucel (hydroxypropylcellulose) (HPC)
  T/C: 92 % of control
dose: 12.5 mg/kg/injection, schedule: Q01DX009 (ip), vehicle: Klucel (hydroxypropylcellulose) (HPC)
  T/C: 103 % of control
dose: 25.0 mg/kg/injection, schedule: Q01DX009 (ip), vehicle: Klucel (hydroxypropylcellulose) (HPC)
  T/C: 97 % of control
dose: 50.0 mg/kg/injection, schedule: Q01DX009 (ip), vehicle: Klucel (hydroxypropylcellulose) (HPC)
  T/C: 91 % of control

## N[C@H](C(=O)O)[C@@H]1CC(Cl)=NO1
dose: 0.25 mg/kg/injection, schedule: Q01DX009 (ip), vehicle: saline
  T/C: 93 % of control and 96 % of control and 102 % of control
dose: 0.75 mg/kg/injection, schedule: Q01DX009 (ip), vehicle: saline
  T/C: 112 % of control
dose: 1.5 mg/kg/injection, schedule: Q01DX009 (ip), vehicle: saline
  T/C: 110 % of control
dose: 3.0 mg/kg/injection, schedule: Q01DX009 (ip), vehicle: saline
  T/C: 114 % of control
dose: 6.0 mg/kg/injection, schedule: Q01DX009 (ip), vehicle: saline
  T/C: 156 % of control
dose: 12.0 mg/kg/injection, schedule: Q01DX009 (ip), vehicle: saline
  T/C: 57 % of control

## CS(=O)(=O)OCC(O)C(O)COS(C)(=O)=O (stereo not drawn)
[9]
  T/C: 100 % of control
[5]
  T/C: 102 % of control
[6]
  T/C: 103 % of control and 114 % of control
dose: 800.0 mg/kg/injection, schedule: Q01DX009 (ip), vehicle: saline with Tween-80
  T/C: 153 % of control

## COc1cccc2c1C(=O)c1c(O)c3c(c(O)c1C2=O)C[C@@](O)(C(=O)CN1CCOCC1)C[C@@H]3OC1CC(N)C(O)C(C)O1 (stereo partly drawn)
dose: 3.13 mg/kg/injection, schedule: Q01DX009 (ip), vehicle: water
  T/C: 159 % of control
dose: 6.25 mg/kg/injection, schedule: Q01DX009 (ip), vehicle: water
  T/C: 153 % of control
[3]
  T/C: 157 % of control
[4]
  T/C: 157 % of control

## C=CCOCC(O)CN1CCC(C)CC1 (stereo not drawn)
[10]
  T/C: 88 % of control
[11]
  T/C: 101 % of control
[12]
  T/C: 107 % of control

## CC1=CC(=NN=c2cc(C)n([O-])c(C)c2)C=C(C)[N+]1=O
[13]
  T/C: 111 % of control
[14]
  T/C: 115 % of control
[9]
  T/C: 118 % of control

## CN(C)CCN(Cc1ccccc1)c1ccccc1
[10]
  T/C: 95 % of control
[11]
  T/C: 89 % of control

## Nc1ccc2cc(S(=O)(=O)O)cc(O)c2c1N=Nc1ccc(F)cc1
[15]
  T/C: 87 % of control

## CCCC(=O)Oc1ccc(/C=N/NC(N)=S)nc1
[13]
  T/C: 105 % of control
[14]
  T/C: 105 % of control
[9]
  T/C: 106 % of control and 112 % of control
[5]
  T/C: 116 % of control
[6]
  T/C: 110 % of control

## CCCCCCCCCCCC1=C(O)C(=O)C=C(O)C1=O
dose: 6.25 mg/kg/injection, schedule: Q01DX009 (ip), vehicle: saline with Tween-80
  T/C: 102 % of control
[13]
  T/C: 96 % of control
[14]
  T/C: 86 % of control

## CCc1ccc(NC(=O)Nc2cccc(Cl)c2)cc1
[1]
  T/C: 91 % of control
[2]
  T/C: 102 % of control
[8]
  T/C: 88 % of control

## O=C(N/N=C/c1ccc(O)cc1O)c1cccnc1
dose: 25.0 mg/kg/injection, schedule: Q01DX009 (ip), vehicle: olive oil, sesame oil, peanut oil
  T/C: 86 % of control

## COc1cccc(NC(=O)Nc2cccc(Cl)c2)c1
[1]
  T/C: 103 % of control
[2]
  T/C: 96 % of control
[8]
  T/C: 103 % of control

## COC1=C(N2CC2)C(=O)C(OC)=C(N2CC2)C1=O
dose: 0.25 mg/kg/injection, schedule: Q01DX009 (ip), vehicle: other
  T/C: 112 % of control and 118 % of control
dose: 1.0 mg/kg/injection, schedule: Q01DX009 (ip), vehicle: saline with Tween-80
  T/C: 179 % of control
dose: 2.0 mg/kg/injection, schedule: Q01DX009 (ip), vehicle: other
  T/C: 169 % of control

## O=C1NC(=O)C2C3C=CC(C3)C12 (stereo not drawn)
[16]
  T/C: 105 % of control
[17]
  T/C: 105 % of control
[15]
  T/C: 113 % of control

## CCN(CC)CCOC(=O)Cc1cccc2c(=O)cc(-c3ccccc3)oc12
[16]
  T/C: 109 % of control
[17]
  T/C: 113 % of control

## C=C1OC(=O)OC1(C)CC(OC)OC (stereo not drawn)
[5]
  T/C: 102 % of control
[6]
  T/C: 113 % of control
[7]
  T/C: 108 % of control

## COc1ccc(S(=O)O)cc1NC(C)=O
[12]
  T/C: 95 % of control

## CC(=O)CC(=O)Nc1cccc(O)c1
[1]
  T/C: 92 % of control
[2]
  T/C: 92 % of control
[8]
  T/C: 86 % of control

## Cc1cc(C)[nH]c(=O)n1
[16]
  T/C: 115 % of control
[17]
  T/C: 101 % of control
[15]
  T/C: 102 % of control
